Assay results as given in US4684664A, “Derivatives of β-(4-isocyano-1,2,3,4-diepoxycyclopentyl) acrylic acid” (Kureha Kagaku Kogyo Kabushiki Kaisha, priority 1984, dated 1987).
Values after ≈ are worked out from the molar mass of the structure shown.

Columns and labels:
Assay type in all cases: cell-based
[1] = test system: Streptococcus faecium IFO 3826; experiment: Antibacterial activity, agar-dilution MIC, organism No. 27; conditions: Enterococcus faecium, IFO3826; Organism No. 27, bouillon-agar; read-out: Minimum Inhibitory Concentration
Outline: (§1)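 Minimum inhibitory concentration determined on solid bouillon agar by the agar-dilution technique, with values stated as μg/ml.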

[2] = test system: Staphylococcus aureus Terajima; experiment: Antibacterial activity, agar-dilution MIC, organism No. 2; conditions: Staphylococcus aureus; Organism No. 2, bouillon-agar; read-out: Minimum Inhibitory Concentration
Outline: as §1

[3] = test system: Salmonella shottmuelleri 8006; experiment: Antibacterial activity, agar-dilution MIC, organism No. 11; conditions: Salmonella, 8006; Organism No. 11, bouillon-agar; read-out: Minimum Inhibitory Concentration
Outline: as §1

[4] = test system: Pseudomonas aeruginosa NCTC 10490; experiment: Antibacterial activity, agar-dilution MIC, organism No. 16; conditions: Pseudomonas aeruginosa, NCTC10490; Organism No. 16, bouillon-agar; read-out: Minimum Inhibitory Concentration
Outline: as §1

[5] = test system: Aspergillus niger IFO 6342; experiment: Antifungal activity, agar-dilution MIC, organism No. 30; conditions: Aspergillus niger, IFO6342; Organism No. 30, bouillon-agar; read-out: Minimum Inhibitory Concentration
Outline: as §1

[6] = test system: Proteus mirabilis IFO 3849; experiment: Antibacterial activity, agar-dilution MIC, organism No. 19; conditions: Proteus mirabilis, IFO3849; Organism No. 19, bouillon-agar; read-out: Minimum Inhibitory Concentration
Outline: as §1

Proteus vulgaris OX-19 = experiment: Antibacterial activity, agar-dilution MIC, organism No. 20; conditions: Proteus vulgaris, OX19; Organism No. 20, bouillon-agar; read-out: Minimum Inhibitory Concentration
Outline: as §1

[7] = test system: Klebsiella pneumoniae PCI-602; experiment: Antibacterial activity, agar-dilution MIC, organism No. 7; conditions: Klebsiella pneumoniae, PCI602; Organism No. 7, bouillon-agar; read-out: Minimum Inhibitory Concentration
Outline: as §1

Proteus vulgaris HX-19 = experiment: Antibacterial activity, agar-dilution MIC, organism No. 21; conditions: Proteus vulgaris, HX19; Organism No. 21, bouillon-agar; read-out: Minimum Inhibitory Concentration
Outline: as §1

[8] = test system: Mycoplasma pneumoniae IID817; experiment: Antimycoplasmal activity, MIC by phenol red colour change, organism No. 28; conditions: Mycoplasma, IID817; Organism No. 28, PPLO broth + 1% glucose, 37° C.; read-out: Minimum Inhibitory Concentration (MIC)
Protocol: Mycoplasma pneumoniae IID817 was used as the test microorganism in a culture medium prepared by adding 1% of glucose to "PPLO broth (manufactured by Difco Co.) liquid culture medium" at 37° C. with phenol red as an indicator, thereby culturing the test microorganism.

[9] = test system: Salmonella enteritidis G 14; experiment: Antibacterial activity, agar-dilution MIC, organism No. 12; conditions: Salmonella enterica, ENTERITIDIS; Organism No. 12, bouillon-agar; read-out: Minimum Inhibitory Concentration
Outline: as §1

[10] = test system: Pseudomonas aeruginosa PAO 1; experiment: Antibacterial activity, agar-dilution MIC, organism No. 17; conditions: Pseudomonas aeruginosa, PAO1; Organism No. 17, bouillon-agar; read-out: Minimum Inhibitory Concentration
Outline: as §1

[11] = test system: Serratia marcescens IAM 1184; experiment: Antibacterial activity, agar-dilution MIC, organism No. 13; conditions: Serratia marcescens, IAM1184; Organism No. 13, bouillon-agar; read-out: Minimum Inhibitory Concentration
Text: Agar-dilution method was used for determination of the antibacterial activity and antifungal activity while using bouillon-agar culture medium, and the minimum inhibitory concentration of the specimen was expressed by μg/ml of the culture medium.

[12] = test system: Micrococcus luteus ATCC 9341; experiment: Antibacterial activity, agar-dilution MIC, organism No. 25; conditions: Micrococcus luteus, ATCC9341; Organism No. 25, bouillon-agar; read-out: Minimum Inhibitory Concentration
Outline: as §1

[13] = test system: Escherichia coli NIHJ-JC-2; experiment: Antibacterial activity, agar-dilution MIC, organism No. 5; conditions: Escherichia coli, NIHJJC2; Organism No. 5, bouillon-agar; read-out: Minimum Inhibitory Concentration
Outline: as §1

Salmonella typhi 901 = experiment: Antibacterial activity, agar-dilution MIC, organism No. 9; conditions: Salmonella enterica, TYPHI, read-out: Minimum Inhibitory Concentration
Outline: as §1

Enterobacter cloacae 963 = experiment: Antibacterial activity, agar-dilution MIC, organism No. 24; conditions: Enterobacter cloacae, 963; Organism No. 24, bouillon-agar; read-out: Minimum Inhibitory Concentration
Outline: as §1

[14] = test system: Staphylococcus aureus FDA 209PJc-1; experiment: Antibacterial activity, agar-dilution MIC, organism No. 1; conditions: Staphylococcus aureus, FDA209PJC1; Organism No. 1, bouillon-agar; read-out: Minimum Inhibitory Concentration
Outline: as §1

[15] = test system: Proteus rettgeri IFO 3850; experiment: Antibacterial activity, agar-dilution MIC, organism No. 22; conditions: Providencia rettgeri, IFO3850; Organism No. 22, bouillon-agar; read-out: Minimum Inhibitory Concentration
Outline: as §1

[16] = test system: Salmonella paratyphi-A 1015; experiment: Antibacterial activity, agar-dilution MIC, organism No. 10; conditions: Salmonella enterica, PARATYPHI, read-out: Minimum Inhibitory Concentration
Outline: as §1

[17] = test system: Bacillus subtilis ATCC 6633; experiment: Antibacterial activity, agar-dilution MIC, organism No. 14; conditions: Bacillus subtilis, ATCC6633; Organism No. 14, bouillon-agar; read-out: Minimum Inhibitory Concentration
Outline: as §1

[18] = test system: Salmonella typhimurium IID 971; experiment: Antibacterial activity, agar-dilution MIC, organism No. 8; conditions: Salmonella enterica; Organism No. 8, bouillon-agar; read-out: Minimum Inhibitory Concentration
Outline: as §1

[19] = test system: Staphylococcus aureus MS 353; experiment: Antibacterial activity, agar-dilution MIC, organism No. 3; conditions: Staphylococcus aureus, MS353; Organism No. 3, bouillon-agar; read-out: Minimum Inhibitory Concentration
Outline: as §1

[20] = test system: Proteus morganii IFO 3848; experiment: Antibacterial activity, agar-dilution MIC, organism No. 18; conditions: Morganella morganii, IFO3848; Organism No. 18, bouillon-agar; read-out: Minimum Inhibitory Concentration
Outline: as §1

[21] = test system: Pseudomonas aeruginosa IFO 3445; experiment: Antibacterial activity, agar-dilution MIC, organism No. 15; conditions: Pseudomonas aeruginosa, IFO3445; Organism No. 15, bouillon-agar; read-out: Minimum Inhibitory Concentration
Outline: as §1

[22] = test system: Candida albicans IAM 4905; experiment: Antifungal activity, agar-dilution MIC, organism No. 29; conditions: Candida albicans, IAM4905; Organism No. 29, bouillon-agar; read-out: Minimum Inhibitory Concentration
Outline: as §1

[23] = test system: Streptococcus pyogenes IFO 3340; experiment: Antibacterial activity, agar-dilution MIC, organism No. 26; conditions: Streptococcus pyogenes, IFO3340; Organism No. 26, bouillon-agar; read-out: Minimum Inhibitory Concentration
Outline: as §1

[24] = test system: Enterobacter aerogenes ATCC 13048; experiment: Antibacterial activity, agar-dilution MIC, organism No. 23; conditions: Klebsiella aerogenes, ATCC13048; Organism No. 23, bouillon-agar; read-out: Minimum Inhibitory Concentration
Outline: as §1

[25] = test system: Escherichia coli K12 C600 IAM 1264; experiment: Antibacterial activity, agar-dilution MIC, organism No. 6; conditions: Escherichia coli, IAM1264; Organism No. 6, bouillon-agar; read-out: Minimum Inhibitory Concentration
Outline: as §1

[26] = test system: Streptococcus pyogenes Cook; experiment: Antibacterial activity, agar-dilution MIC, organism No. 4; conditions: Streptococcus pyogenes; Organism No. 4, bouillon-agar; read-out: Minimum Inhibitory Concentration
Outline: as §1

Row | SMILES | MIC [2] | MIC [3] | MIC [4] | MIC [5] | MIC [6] | MIC (Proteus vulgaris OX-19) | MIC [7] | MIC (Proteus vulgaris HX-19) | MIC [8] | MIC [9] | MIC [10] | MIC [11] | MIC [12] | MIC [13] | MIC (Salmonella typhi 901) | MIC (Enterobacter cloacae 963) | MIC [14] | MIC [15] | MIC [16] | MIC [17] | further results
1 | [C-]#[N+]C12CC3(/C=C/C(=O)Nc4cccc([N+](=O)[O-])c4)OC3C1O2 (stereo not drawn) [compound 48] | 0.39 mg/L (≈ 1.24 µM) | 0.39 mg/L (≈ 1.24 µM) | > 200 mg/L | 3.13 mg/L (≈ 9.99 µM) | 12.5 mg/L (≈ 39.9 µM) | < 0.05 mg/L | 0.2 mg/L (≈ 0.638 µM) | < 0.05 mg/L | < 0.2 mg/L | 3.13 mg/L (≈ 9.99 µM) | > 200 mg/L | 6.25 mg/L (≈ 20 µM) | < 0.05 mg/L | 25 mg/L (≈ 79.8 µM) | 3.13 mg/L (≈ 9.99 µM) | 25 mg/L (≈ 79.8 µM) | 0.2 mg/L (≈ 0.638 µM) | 1.56 mg/L (≈ 4.98 µM) | 0.39 mg/L (≈ 1.24 µM) | 6.25 mg/L (≈ 20 µM) | MIC [1]: 6.25 mg/L (≈ 20 µM); MIC [18]: 3.13 mg/L (≈ 9.99 µM); MIC [19]: 0.1 mg/L (≈ 0.319 µM); MIC [20]: 0.2 mg/L (≈ 0.638 µM); MIC [21]: > 200 mg/L; MIC [22]: 3.13 mg/L (≈ 9.99 µM); MIC [23]: 0.39 mg/L (≈ 1.24 µM); MIC [24]: > 200 mg/L; MIC [25]: 25 mg/L (≈ 79.8 µM)
2 | [C-]#[N+]C12CC3(/C=C/C(=O)NC4=NCCS4)OC3C1O2 (stereo not drawn) [compound 66] | 25 mg/L (≈ 90.2 µM) | 12.5 mg/L (≈ 45.1 µM) | > 200 mg/L | 50 mg/L (≈ 180 µM) | 200 mg/L (≈ 721 µM) | 3.13 mg/L (≈ 11.3 µM) | 6.25 mg/L (≈ 22.5 µM) | 3.13 mg/L (≈ 11.3 µM) | < 0.2 mg/L | 6.25 mg/L (≈ 22.5 µM) | > 200 mg/L | > 200 mg/L | 0.1 mg/L (≈ 0.361 µM) | 25 mg/L (≈ 90.2 µM) | 6.25 mg/L (≈ 22.5 µM) | > 200 mg/L | 12.5 mg/L (≈ 45.1 µM) | > 200 mg/L | 12.5 mg/L (≈ 45.1 µM) | 25 mg/L (≈ 90.2 µM) | MIC [26]: 12.5 mg/L (≈ 45.1 µM); MIC [18]: 25 mg/L (≈ 90.2 µM); MIC [19]: 12.5 mg/L (≈ 45.1 µM); MIC [20]: 3.13 mg/L (≈ 11.3 µM); MIC [21]: > 200 mg/L; MIC [22]: 25 mg/L (≈ 90.2 µM); MIC [24]: > 200 mg/L; MIC [25]: 50 mg/L (≈ 180 µM)
